Biological target: human activated kallikrein enzyme (plasma kallikrein) (Homo sapiens (Human), UniProt P03952)
Assay: Inhibition of human activated plasma kallikrein, fluorogenic peptide substrate assay, 500 pM enzyme format
Assay type: biochemical
Details: 500 pM activated kallikrein enzyme, 300 uM Pro-Phe-Arg-7-amido-4-methylcoumarin substrate, 30 min preincubation, 10 min at RT; read-out: Primary Dose Response Assay: Average EC50
In short: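 Buffer 20 mM Tris pH 7.5, EDTA, NaCl, PEG-400, Triton X-100; 300 uM Pro-Phe-Arg-AMC; enzyme–inhibitor preincubation 30 min RT. Format one: 500 pM kallikrein, 10 min RT reaction; format two: 5 pM kallikrein, 18 h RT reaction. Fluorescence read at 460 nm (380 nm excitation).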

Chain of human activated kallikrein enzyme (plasma kallikrein) (P03952 391-638): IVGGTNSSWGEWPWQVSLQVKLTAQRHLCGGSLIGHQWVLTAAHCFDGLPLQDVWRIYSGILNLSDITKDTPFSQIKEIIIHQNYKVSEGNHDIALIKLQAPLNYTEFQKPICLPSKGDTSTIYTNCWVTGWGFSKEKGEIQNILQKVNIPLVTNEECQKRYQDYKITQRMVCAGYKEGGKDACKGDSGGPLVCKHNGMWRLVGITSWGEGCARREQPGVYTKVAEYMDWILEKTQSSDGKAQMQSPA
Chain of human activated kallikrein enzyme (plasma kallikrein) (P03952 20-390 partner): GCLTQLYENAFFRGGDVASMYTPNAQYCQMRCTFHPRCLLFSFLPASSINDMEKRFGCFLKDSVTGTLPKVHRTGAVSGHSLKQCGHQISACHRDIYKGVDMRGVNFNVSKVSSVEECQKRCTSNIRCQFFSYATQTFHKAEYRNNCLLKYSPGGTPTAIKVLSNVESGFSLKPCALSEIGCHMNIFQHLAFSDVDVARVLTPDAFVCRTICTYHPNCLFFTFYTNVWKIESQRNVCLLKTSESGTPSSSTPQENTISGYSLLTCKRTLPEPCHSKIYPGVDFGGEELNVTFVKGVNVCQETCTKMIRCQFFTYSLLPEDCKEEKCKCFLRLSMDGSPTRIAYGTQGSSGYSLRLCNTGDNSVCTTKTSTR

EC50	Compound
< 1 nM	O=C(NCc1ncn2ccc(Br)c(F)c12)c1cn(Cc2cn3nc(C4CC4)ccc3n2)nn1 [Example I-139, N-((7-bromo-8-fluoroimidazo[1,5-a]pyridin-1-yl)methyl)-1-((6-cyclopropylimidazo[1,2-b]pyridazin-2-yl)methyl)-1H-1,2,3-triazole-4-carboxamide]
< 1 nM	O=C(NCc1ncn2ccc(Br)c(F)c12)c1nnc(Cc2cn3nc(C4CC4)ccc3n2)o1 [Example I-140, N-((7-bromo-8-fluoroimidazo[1,5-a]pyridin-1-yl)methyl)-5-((6-cyclopropylimidazo[1,2-b]pyridazin-2-yl)methyl)-1,3,4-oxadiazole-2-carboxamide]
< 1 nM	O=C(NCc1ncn2ccc(Cl)cc12)c1cnn(Cc2cn3cc(C4CC4)cc(C(O)C4COC4)c3n2)c1 (stereo not drawn) [Example I-141, N-((7-chloroimidazo[1,5-a]pyridin-1-yl)methyl)-1-((6-cyclopropyl-8-(hydroxy(oxetan-3-yl)methyl)imidazo[1,2-a]pyridin-2-yl)methyl)-1H-pyrazole-4-carboxamide]
1 to 10 nM	COc1c(C2CC2)ccc2nc(Cn3cc(C(=O)NCc4ncn5ccc(Cl)cc45)cn3)cn12 [Example I-142, N-((7-chloroimidazo[1,5-a]pyridin-1-yl)methyl)-1-((6-cyclopropyl-5-methoxyimidazo[1,2-a]pyridin-2-yl)methyl)-1H-pyrazole-4-carboxamide]
< 1 nM	O=C(NCc1ncn2ccc(Cl)cc12)c1cnn(Cc2cn3cc(C4CC4)cc(C(F)(F)F)c3n2)c1 [Example I-143, N-((7-chloroimidazo[1,5-a]pyridin-1-yl)methyl)-1-((6-cyclopropyl-8-(trifluoromethyl)imidazo[1,2-a]pyridin-2-yl)methyl)-1H-pyrazole-4-carboxamide]
< 1 nM	O=C(NCc1ncn2ccc(Cl)cc12)c1cn(Cc2cn3c(F)c(C4CC4)ccc3n2)nn1 [Example I-144, N-((7-chloroimidazo[1,5-a]pyridin-1-yl)methyl)-1-((6-cyclopropyl-5-fluoroimidazo[1,2-a]pyridin-2-yl)methyl)-1H-1,2,3-triazole-4-carboxamide]
< 1 nM	O=C(NCc1ncn2ccc(Br)c(F)c12)c1cn(Cc2cn3c(F)c(C4CC4)ccc3n2)nn1 [Example I-145, N-((7-bromo-8-fluoroimidazo[1,5-a]pyridin-1-yl)methyl)-1-((6-cyclopropyl-5-fluoroimidazo[1,2-a]pyridin-2-yl)methyl)-1H-1,2,3-triazole-4-carboxamide]
< 1 nM	O=C(NCc1ncn2ccc(Cl)c(F)c12)c1cnn(Cc2cn3nc(C4CC4)ccc3n2)c1 [Example I-146, N-((7-chloro-8-fluoroimidazo[1,5-a]pyridin-1-yl)methyl)-1-((6-cyclopropylimidazo[1,2-b]pyridazin-2-yl)methyl)-1H-pyrazole-4-carboxamide]
< 1 nM	O=C(NCc1ncn2ccc(Cl)c(F)c12)c1cnn(Cc2cn3cc(C4CC4)ccc3n2)c1 [Example I-147, N-((7-chloro-8-fluoroimidazo[1,5-a]pyridin-1-yl)methyl)-1-((6-cyclopropylimidazo[1,2-a]pyridin-2-yl)methyl)-1H-pyrazole-4-carboxamide]
< 1 nM	O=C(NCc1ncn2ccc(Cl)c(F)c12)c1cn(Cc2cn3cc(C4CC4)ccc3n2)nn1 [Example I-148, N-((7-chloro-8-fluoroimidazo[1,5-a]pyridin-1-yl)methyl)-1-((6-cyclopropylimidazo[1,2-a]pyridin-2-yl)methyl)-1H-1,2,3-triazole-4-carboxamide]
< 1 nM	N#Cc1cc(C2CC2)cn2cc(Cn3cc(C(=O)NCc4ncn5ccc(Cl)c(F)c45)nn3)nc12 [Example I-149, N-((7-chloro-8-fluoroimidazo[1,5-a]pyridin-1-yl)methyl)-1-((8-cyano-6-cyclopropylimidazo[1,2-a]pyridin-2-yl)methyl)-1H-1,2,3-triazole-4-carboxamide]
< 1 nM	O=C(NCc1ncn2ccc(Cl)c(F)c12)c1cn(Cc2cn3nc(C4CC4)ccc3n2)nn1 [Example I-150, N-((7-chloro-8-fluoroimidazo[1,5-a]pyridin-1-yl)methyl)-1-((6-cyclopropylimidazo[1,2-b]pyridazin-2-yl)methyl)-1H-1,2,3-triazole-4-carboxamide]
10 to 100 nM	O=C(NCc1ncn2cc(F)c(Br)cc12)c1cnn(Cc2cn3cc(C4CC4)ccc3n2)c1 [Example I-151, N-((7-bromo-6-fluoroimidazo[1,5-a]pyridin-1-yl)methyl)-1-((6-cyclopropylimidazo[1,2-a]pyridin-2-yl)methyl)-1H-pyrazole-4-carboxamide]
< 1 nM	O=C(NCc1ncn2ccc(Cl)cc12)c1ncn(Cc2cn3cc(C4CC4)ccc3n2)n1 [Example I-152, N-((7-chloroimidazo[1,5-a]pyridin-1-yl)methyl)-1-((6-cyclopropylimidazo[1,2-a]pyridin-2-yl)methyl)-1H-1,2,4-triazole-3-carboxamide]
< 1 nM	O=C(NCc1ncn2ccc(Cl)cc12)c1cn(Cc2cn3cc(C4CC4)cc(C4(O)COC4)c3n2)nn1 [Example I-153, N-((7-chloroimidazo[1,5-a]pyridin-1-yl)methyl)-1-((6-cyclopropyl-8-(3-hydroxyoxetan-3-yl)imidazo[1,2-a]pyridin-2-yl)methyl)-1H-1,2,3-triazole-4-carboxamide]
< 1 nM	N#Cc1cc(C2CC2)cn2cc(Cc3nnc(C(=O)NCc4ncn5ccc(Br)c(F)c45)o3)nc12 [Example I-154, N-((7-bromo-8-fluoroimidazo[1,5-a]pyridin-1-yl)methyl)-5-((8-cyano-6-cyclopropylimidazo[1,2-a]pyridin-2-yl)methyl)-1,3,4-oxadiazole-2-carboxamide]
< 1 nM	CCOC(=O)Cc1cc(C2CC2)cn2cc(Cn3cc(C(=O)NCc4ncn5ccc(Cl)c(F)c45)nn3)nc12 [Example I-157a, ethyl 2-(2-((4-(((7-chloro-8-fluoroimidazo[1,5-a]pyridin-1-yl)methyl)carbamoyl)-1H-1,2,3-triazol-1-yl)methyl)-6-cyclopropylimidazo[1,2-a]pyridin-8-yl)acetate]
< 1 nM	O=C(O)Cc1cc(C2CC2)cn2cc(Cn3cc(C(=O)NCc4ncn5ccc(Cl)c(F)c45)nn3)nc12 [Example I-157b, 2-(2-((4-(((7-chloro-8-fluoroimidazo[1,5-a]pyridin-1-yl)methyl)carbamoyl)-1H-1,2,3-triazol-1-yl)methyl)-6-cyclopropylimidazo[1,2-a]pyridin-8-yl)acetic acid]
1 to 10 nM	Cn1nc(C(=O)NCc2ncn3ccc(Cl)cc23)nc1Cc1cn2cc(C3CC3)ccc2n1 [Example I-160, N-((7-chloroimidazo[1,5-a]pyridin-1-yl)methyl)-5-((6-cyclopropylimidazo[1,2-a]pyridin-2-yl)methyl)-1-methyl-1H-1,2,4-triazole-3-carboxamide]
1 to 10 nM	O=C(NCc1ncn2ccc(Cl)cc12)c1nnc(Cc2cn3cc(C4CC4)ccc3n2)[nH]1 [Example I-161, N-((7-chloroimidazo[1,5-a]pyridin-1-yl)methyl)-5-((6-cyclopropylimidazo[1,2-a]pyridin-2-yl)methyl)-4H-1,2,4-triazole-3-carboxamide]
< 1 nM	CCOC(=O)CCc1cc(C2CC2)cn2cc(Cn3cc(C(=O)NCc4ncn5ccc(Cl)c(F)c45)nn3)nc12 [Example I-163a, ethyl 3-(2-((4-(((7-chloro-8-fluoroimidazo[1,5-a]pyridin-1-yl)methyl)carbamoyl)-1H-1,2,3-triazol-1-yl)methyl)-6-cyclopropylimidazo[1,2-a]pyridin-8-yl)propanoate]
< 1 nM	O=C(O)CCc1cc(C2CC2)cn2cc(Cn3cc(C(=O)NCc4ncn5ccc(Cl)c(F)c45)nn3)nc12 [Example I-163b, 3-(2-((4-(((7-chloro-8-fluoroimidazo[1,5-a]pyridin-1-yl)methyl)carbamoyl)-1H-1,2,3-triazol-1-yl)methyl)-6-cyclopropylimidazo[1,2-a]pyridin-8-yl)propanoic acid]

Compound	EC50
O=C(NCc1ncn2ccc(Cl)cc12)c1cnn(Cc2cn3cc(C4CC4)cc(Cc4nnco4)c3n2)c1 [Example I-155, 1-((8-((1,3,4-oxadiazol-2-yl)methyl)-6-cyclopropylimidazo[1,2-a]pyridin-2-yl)methyl)-N-((7-chloroimidazo[1,5-a]pyridin-1-yl)methyl)-1H-pyrazole-4-carboxamide]	< 1 nM
O=C(NCc1ncn2ccc(Cl)c(F)c12)c1nnc(Cc2cn3nc(C4CC4)ccc3n2)o1 [Example I-156, N-((7-chloro-8-fluoroimidazo[1,5-a]pyridin-1-yl)methyl)-5-((6-cyclopropylimidazo[1,2-b]pyridazin-2-yl)methyl)-1,3,4-oxadiazole-2-carboxamide]	< 1 nM
N#Cc1cc(C2CC2)cn2cc(Cc3nnc(C(=O)NCc4ncn5ccc(Cl)c(F)c45)o3)nc12 [Example I-158, N-((7-chloro-8-fluoroimidazo[1,5-a]pyridin-1-yl)methyl)-5-((8-cyano-6-cyclopropylimidazo[1,2-a]pyridin-2-yl)methyl)-1,3,4-oxadiazole-2-carboxamide]	< 1 nM
CS(=O)(=O)c1cc(C2CC2)cn2cc(Cn3cc(C(=O)NCc4ncn5ccc(Cl)cc45)cn3)nc12 [Example I-159, N-((7-chloroimidazo[1,5-a]pyridin-1-yl)methyl)-1-((6-cyclopropyl-8-(methylsulfonyl)imidazo[1,2-a]pyridin-2-yl)methyl)-1H-pyrazole-4-carboxamide]	< 1 nM
CCOC(=O)C(C)(C)Cc1cc(C2CC2)cn2cc(Cn3cc(C(=O)NCc4ncn5ccc(Cl)cc45)cn3)nc12 [Example I-162, ethyl 3-(2-((4-(((7-chloroimidazo[1,5-a]pyridin-1-yl)methyl)carbamoyl)-1H-pyrazol-1-yl)methyl)-6-cyclopropylimidazo[1,2-a]pyridin-8-yl)-2,2-dimethylpropanoate]	< 1 nM

From patent publication US10730874B2 (Shire Human Genetic Therapies, Inc., priority 2018, dated 2020)
